Test results reported in patent US20240368163A1, “COMPOUNDS AND METHODS FOR MODULATING SPLICING” (REMIX THERAPEUTICS INC., priority 2021, published 2024).

Tests used:
Assay type in all cases: cell-based, human
MYB [1] = experiment: HiBiT protein abundance assay, MYB; details: Homo sapiens, K562, 24 h, modified K562 cells
Method: (§1) Compounds described herein were used to screen for effects on quantitative protein abundance using a HiBit assay system (Promega). Quantitative protein abundance was determined by measuring the protein levels of HiBit-tagged protein targets expressed in cell culture via luminescence using the Nano-Glo HiBiT Lytic Detection System, which uses a split complementation assay format to reconstitute NanoBiT enzyme to generate a luminescent signal. A protein abundance assay was developed such that endogenous protein targets could be modified with the HiBiT peptide tag and their abundance could be assessed after compound treatment. Briefly, K562 cell lines containing a HiBiT-modification were treated with various compounds described herein (e.g., compounds of Formulas (I), (II), or (III)). After treatment for 24 hours, the protein abundance of a specific target was determined by measuring luminescence.
(§2) Cells were maintained in IMIDM with 10% FBS. Before the assay, cells were diluted with […] growth media (IMIDM+[…] media) and were seeded in a 384-well plate at a density of 10000 cells/well (for each cell line listed in Table 12). Each compound was prepared as a 10-point 3-fold serial dilution in DMSO with the top dose at a final concentration of 10 μM in the well. Unmodified K562 cells were added at the previously specified density with DMSO to serve as an assay baseline and positive control (PC) and DMSO only with the respective modified cell lines was added to the negative control (NC) columns. Final DMSO concentration was kept at or below 0.25%. Treated cell plates were placed in an incubator at 37° C. with 5% CO2 for 24 hours. After 24 hours, 25 μL of Complete HiBit Lytic reagent was added to each well at room temperature (e.g. one plate requiring 10 mL Lytic Buffer, 100 μL LgBiT Protein, 200 μL Lytic Substrate), shaken for 5 minutes at 600 RPM, then left to sit for 10 minutes for signal to stabilize before reading on a Spark Cyto plate reader (Tecan) with a 500 ms measurement time.
(§3) To determine compound effects on protein abundance of each target in Table 12, the percent response for each respective cell line was calculated at each compound concentration as follows:
(§4) For the normalized response at each concentration, a four-parameter logistical regression was fit to the data and the response was interpolated at the 50% value to determine a concentration for protein abundance at 50% (IC50) the untreated control.

HTT = experiment: HiBiT protein abundance assay, HTT; details: modified K562 cells
Method: as §1, §2, §3, §4

Target C = experiment: HiBiT protein abundance assay, Target C; details: Homo sapiens, K562, 24 h, modified K562 cells
Method: • Promega Nano-Glo HiBiT Lytic Detection System (cat #N3030) • Coming 384-well TC-treated microplates (cat #3570) • Synthego Engineered Cells Knock-In Clones
as §2, §3, §4

MYB [2] = experiment: Splicing RT-qPCR assay, MYB mRNA canonical junction (CJ) and alternative junction (AJ); details: for AC50: increase in AJ mRNA
Method: Compounds described herein were used to modulate RNA transcript abundance in cells. The expression of a target mRNA was measured by detecting the formation of an exon-exon junction in the canonical transcript (CJ). A compound mediated exon-inclusion event was detected by observing an increase in formation of a new junction with an alternative exon (AJ). Real-time qPCR assays were used to detect these splicing switches and interrogate the potency of various compounds towards different target genes. A high-throughput real time quantitative PCR (RT-qPCR) assay was developed to measure these two isoforms of the mRNA (CJ and AJ) for exemplary genes, such as HTT, SMN2, and MYB, together with a control housekeeping gene, GAPDH or GUSB or PPIA, used for normalization. Briefly, the A673 or K562 cell line was treated with various compounds described herein (e.g., compounds of Formula (I)). After treatment, the levels of the HTT, MYB, or SMN2 mRNA targets were determined from each sample of cell lysate by cDNA synthesis followed by qPCR.
The A673 cell line was cultured in DMEM with 10% FBS. Cells were diluted with full growth media and plated in a 96-well plate (15,000 cells in 100 ul media per well). The plate was incubated at 37° C. with 5% CO2 for 24 hours to allow cells to adhere. An 11-point 3-fold serial dilution of the compounds was made in DMSO then diluted in media in an intermediate plate. Compounds were transferred from the intermediate plate to the cell plate with the top dose at a final concentration of 10 uM in the well. Final DMSO concentration was kept at or below 0.25%. The cell plate was returned to the incubator at 37° C. with 5% CO2 for an additional 24 hours.
The K562 cell line was cultured in IMDM with 10% FBS. For K562, cells were diluted with full growth media and plated in either a 96-well plate (50,000 cells in 50 uL media per well) or a 384-well plate (8,000-40,000 cells in 45 uL media per well). An 11-point 3-fold serial dilution of the compounds were made in DMSO then diluted in media in an intermediate plate. Compound was transferred from the intermediate plate to the cell plate with the top dose at a final concentration of 10 uM in the well. Final DMSO concentration was kept at or below 0.25%. Final volume was 100 uL for 96-well plate and 50 uL for 384-well plate. The cell plate was then placed in an incubator at 37° C. with 5% CO2 for 24 hours.
The cells were then gently washed with 50 uL-100 uL cold PBS before proceeding to addition of lysis buffer. 30 uL-50 μL of room temperature lysis buffer with DNAse I (and optionally RNAsin) was added to each well. Cells were shaken/mixed thoroughly at room temperature for 5-10 minutes for lysis to take place and then 3 uL-5 μL of room temperature stop solution was added and wells were shaken/mixed again. After 2-5 minutes, the cell lysate plate was transferred to ice for RT-qPCR reaction setup. The lysates could also be frozen at −80° C. for later use.
In some cases, a direct lysis buffer was used. An appropriate volume of 3× lysis buffer (10 mM Tris, 150 mM NaCl, 1.5%-2.5% Igepal and 0.1-1 U/uL RNAsin, pH 7.4) was directly added to either K562 or A673 cells in media and mixed by pipetting 3 times. The plates were then incubated at room temperature with shaking/rocking for 20-50 minutes to allow for lysis to take place. After this time, the cell lysate plate was transferred to ice to set up for the RT-qPCR reactions. The lysates could also be frozen at −80° C. for later use.
To set up 10 uL RT-qPCR reactions, cell lysates were transferred to 384-well qPCR plates containing the master mix according to the table below. The plates were sealed, gently vortexed, and spun down before the run. The volumes were adjusted accordingly in some instances where the reaction was carried in 20 μL. The table below summarizes the components of the RT-qPCR reactions:
The RT-qPCR reaction was performed using a QuantStudio (ThermoFisher) under the following fast cycling conditions. […]

[3] = Homo sapiens, K562, 24 h, Table 13A
[4] = Homo sapiens, 24 h, decrease in CJ mRNA, A673 or K562 cells, 24 hours treatment, RT-qPCR, read-out: MYB CJ IC50
[5] = Homo sapiens, 24 h, A673 or K562 cells, 24 hours treatment, RT-qPCR
[6] = Homo sapiens, RT-qPCR panel, canonical junction mRNA, compound concentration having 50% response in CJ decrease, read-out: MYB IC50 (decrease in CJ mRNA levels)
[7] = Homo sapiens, K562, 24 h, Table 13B

Compound	IC50 (MYB [1]; Table 13A)	IC50 (HTT; [3])	IC50 (Target C; Table 13A)	other results
C[C@@H]1C[C@H](N(C)c2ccc(-c3ccc(-c4cn[nH]c4)c4cn[nH]c34)nn2)CCN1 [Compound 101]	1000 to 10000 nM	1000 to 10000 nM	1000 to 10000 nM	–
C[C@@H]1C[C@H](N(C)c2ccc(-c3ccc(-n4cccn4)c4cn[nH]c34)nn2)CCN1 [Compound 103]	1000 to 10000 nM	1000 to 10000 nM	1000 to 10000 nM	–
C[C@@H]1C[C@@H](N(C)c2ccc(-c3ccc(-c4cn[nH]c4)c4cc[nH]c34)nn2)CCN1 [Compound 107]	1000 to 10000 nM	1000 to 10000 nM	1000 to 10000 nM	–
C[C@H]1C[C@@H](N(C)c2ccc(-c3ccc(-c4cn[nH]c4)c4cc[nH]c34)nn2)CCN1 [Compound 108]	> 10000 nM	> 10000 nM	> 10000 nM	IC50 (MYB [2]; [4]): > 10 µM; AC50 (MYB [2]; [5]): > 10 µM; IC50 (MYB [2]; [6]): > 10 µM
C[C@@H]1C[C@@H](N(C)c2ccc(-c3ccc(-n4cccn4)c4cc[nH]c34)nn2)CCN1 [Compound 110]	1000 to 10000 nM	1000 to 10000 nM	1000 to 10000 nM	–
CN(c1ccc(-c2ccc(-c3cn[nH]c3)c3cc[nH]c23)nn1)[C@@H]1C[C@H]2CC[C@@H](C1)N2 [Compound 112]	1000 to 10000 nM	1000 to 10000 nM	1000 to 10000 nM	IC50 (MYB [2]; [4]): 1 to 10 µM; AC50 (MYB [2]; [5]): 1 to 10 µM; IC50 (MYB [2]; [6]): 1 to 10 µM
CN(c1ccc(-c2ccc(-n3cccn3)c3cc[nH]c23)nn1)[C@@H]1C[C@H]2CC[C@@H](C1)N2 [Compound 113]	1000 to 10000 nM	1000 to 10000 nM	1000 to 10000 nM	IC50 (MYB [2]; [4]): > 10 µM; AC50 (MYB [2]; [5]): > 10 µM; IC50 (MYB [2]; [6]): > 10 µM
C[C@@H]1C[C@H](N(C)c2ccc(-c3ccc(-c4cn[nH]c4)c4nn[nH]c34)nn2)CCN1 [Compound 115]	> 10000 nM	> 10000 nM	> 10000 nM	IC50 (MYB [2]; [4]): > 10 µM; AC50 (MYB [2]; [5]): > 10 µM; IC50 (MYB [2]; [6]): > 10 µM
C[C@@H]1C[C@H](N(C)c2ccc(-c3ccc(-c4cn[nH]c4)c4c3NC(=O)C4)nn2)CCN1 [Compound 121]	> 10000 nM	> 10000 nM	> 10000 nM	IC50 (MYB [2]; [4]): > 10 µM; AC50 (MYB [2]; [5]): > 10 µM; IC50 (MYB [2]; [6]): > 10 µM
CN(c1ccc(-c2ccc(-c3cn[nH]c3)c3c2NC(=O)C3)nn1)[C@@H]1C[C@H]2CC[C@@H](C1)N2 [Compound 123]	> 10000 nM	> 10000 nM	> 10000 nM	–
CC1(C)CC(Oc2ccc(-c3ccc(-n4cccn4)c4cn[nH]c34)nn2)CC(C)(C)N1 [Compound 151]	100 to 1000 nM	100 to 1000 nM	100 to 1000 nM	–
c1cnn(-c2ccc(-c3ccc(O[C@@H]4C[C@H]5CC[C@@H](C4)N5)nn3)c3[nH]ncc23)c1 [Compound 152]	100 to 1000 nM	< 100 nM	< 100 nM	–
CN(c1ccc(-c2ccc(-c3cn[nH]c3)c3nc[nH]c23)nn1)[C@@H]1C[C@H]2CC[C@@H](C1)N2 [Compound 163]	> 10000 nM	> 10000 nM	> 10000 nM	–
CN(c1ccc(-c2ccc(-c3cn(C)nn3)c3cn[nH]c23)nn1)[C@@H]1C[C@H]2CC[C@@H](C1)N2 [Compound 165]	1000 to 10000 nM	1000 to 10000 nM	1000 to 10000 nM	–
c1nc2c(-c3cn[nH]c3)ccc(-c3ccc(O[C@@H]4C[C@H]5CCC[C@@H](C4)N5)nn3)c2s1 [Compound 209]	100 to 1000 nM	< 100 nM	< 100 nM	–
c1nc2c(-c3cn[nH]c3)ccc(-c3ccc(N4C[C@H]5CNC[C@H]5C4)nn3)c2s1 [Compound 282]	1000 to 10000 nM	1000 to 10000 nM	> 10000 nM	–
[2H]C([2H])([2H])N(c1ccc(-c2ccc(-c3cn[nH]c3)c3cn[nH]c23)nn1)[C@@H]1C[C@H]2CC[C@@H](C1)N2 [Compound 299]	< 100 nM	< 100 nM	< 100 nM	–
Cc1cc(-c2ccc(-c3ccc(N(C)[C@@H]4C[C@H]5CC[C@@H](C4)N5)nn3)c3[nH]ncc23)cnn1 [Compound 383, (exo)-N-methyl-N-{6-[4-(6-methylpyridazin-4-yl)-1H-indazol-7-yl]pyridazin-3-yl}-8-azabicyclo[3.2.1]octan-3-amine]	1000 to 10000 nM	1000 to 10000 nM	1000 to 10000 nM	–
c1nc2c(-c3cn[nH]c3)ccc(-c3ccc(N(C4CC4)[C@@H]4C[C@H]5CC[C@@H](C4)N5)nn3)c2s1 [Compound 389, (exo)-N-cyclopropyl-N-{6-[4-(1H-pyrazol-4-yl)-1,3-benzothiazol-7-yl]pyridazin-3-yl}-8-azabicyclo [3.2.1] octan-3-amine]	100 to 1000 nM	100 to 1000 nM	< 100 nM	–
c1nc2c(-c3cn[nH]c3)ccc(-c3cnc(N4CCN[C@H](C5CC5)C4)nn3)c2s1 [Compound 553]	–	–	–	IC50 (MYB [2]; RT-qPCR panel, canonical junction mRNA, compound concentration having 50% response in CJ decrease, read-out: MYB IC50 (decrease in CJ mRNA levels)): 1 to 10 µM; IC50 (HTT; Table 13A, 24 hours): 1000 to 10000 nM
CN(c1ccc(-c2ccc(-c3cn[nH]c3)c(=O)[nH]2)nn1)[C@@H]1C[C@H]2CC[C@@H](C1)N2 [Compound 904]	–	–	–	IC50 (MYB [1]; Table 13B): > 10000 nM; IC50 (HTT; [7]): > 10000 nM; IC50 (Target C; Table 13B): > 10000 nM
CN(c1ccc(-c2ccc(-n3cccn3)c(=O)[nH]2)nn1)[C@@H]1C[C@H]2CC[C@@H](C1)N2 [Compound 905]	–	–	–	IC50 (MYB [1]; Table 13B): 1000 to 10000 nM; IC50 (HTT; [7]): 100 to 1000 nM; IC50 (Target C; Table 13B): 100 to 1000 nM
